The test system of one data set is normal human BBMV. The experiment in a line: [14C]Cholesterol uptake from egg PC vesicles by normal human duodenal BBMV. Type of data set: biochemical. The note with it: human duodenal BBMV. As to the method: Biopsy samples from human duodenum, 20 to 30 mg of wet tissue each, were suspended in 200 μl buffer (12 mM Tris HCl pH 7.2, 300 mM mannitol, 5 mM EGTA, 1 mM phenylmethylsulfonyl fluoride), frozen in liquid nitrogen and stored at −80° C. prior to use. BBMV were prepared by Mg^+2 precipitation (Hauser et al, Biochim. Biophys. Acta 602 567-577 (1980)) as described in detail by Booth et al (Lancet 1 1066-1069 (1985)). Proteinase K treatment of the BBMV was carried out according to Thurnhofer and Hauser (Biochim. Biophys. Acta 1024 249-262 (1990)). […] Small unilamellar phesrholipid vesicles were prepared by tip sonication (Schulthess, Biochemistry 33 4500-4508 (1994)).
(I) Egg PC small unilamellar vesicles containing […] (^14C] cholesterol and BBMV both dispersed in 10 mM Tris-HCl pH 7.2, 0.15 M NaCl, 5 mM EDTA were incubated at room temperature. After timed intervals phospholipid vesicles and BBMV were separated by centrifugation at 115000 g for 2 min in a Beckman airfuge. The radioactivities present in pellet and supernatant were determined by counting aliquots in a Beckman LS 7500 liquid scintillatior counter. Fusion of egg PC small unilamellar vesicles and BBMV as a possible mechanism of cholesterol uptake was ruled out as discussed in detail in previous studies (Thurnhofer and Hauser, Biochemistry 29 2142-2148 (1990); Compassi, Biochemistry 34 16473-16482 (1995) and Schulthess, J. Lipid. Res. 37 2405-2419 (1996)).
The experimental data were computer-fitted using the following equation valid for single-exponential exchange reactions: X=X∞+[XO−X∞]e^-k1^[(a+b)/a]t, where XO, X and X∞represent the fractions of the labelled lipid in the donor at times 0, t and at equilibrium, respectively. K1 is the pseudo-first-order rate constant of the reaction and a and b are the lipid pools of acceptor and donor, respectively (McKay, Nature 142 997-998 (1938) and Mutsch et al, Biochemistry 25 2134-2140 (1986).
Kinetic measurements were also carried out in the presence of inhibitors; synthetic peptides or apolipoproteins were added to the […] of donor and acceptor vesicles. Cholesterol uptake by native and proteinase K treated BBMV was determined in the presence of increasing concentrations of Ac-18A-NH2, the difference between cholesterol uptake by native and proteinase K treated BBMV is referred as protein-mediated cholesterol uptake in FIG. 6. The IC50 values were determined according to Methods Enzymol. 37 3-22 (1975).

For a further data set, the system named is BBMVs. Nature of the data set: Inhibition of cholesteryl oleate uptake by BBMVs by peptides of varying lengths (Example 8). Type of data set: biochemical. The note with it: for Inhibition of Cholesteryloleate Uptake In. %: donor 0.05 mg total lipid/ml, acceptor 5 mg protein/ml, 23° C. As to the method: going from one peptide to the other (top→bottom) 3 amino acids were removed from the N-terminus. The inhibitory effect of the four peptides listed above were compared at 120 μg peptide/ml. The lipid uptake by BBMVs was measured in the presence of 120 μg peptide/ml each as described below.
Donor and acceptor particles dispersed in Tris/NaCl buffer were centrifuged in a Beckman airfuge at 115000 g is for 2 min at 4° C. The dispersion of the acceptor yielded a pellet which was resuspended in Tris/NaCl buffer. Varying amounts of inhibitor dissolved in the same buffer were added to the acceptor dispersion and at time zero the dispersiorn of acceptor with or without inhibitor was mixed with the top 80% of the supernatant obtained by centrifugation of the donor dispersion. The final concentration of the donor was 0.05 mg total lipid/ml and that of the acceptor was 5 mg protein/ml. The resulting dispersion was incubated at 23° C. and after timed intervals the sterol uptake was stopped by dilution of the incubation medium with 2 volumes of Tris/NaCl buffer. BBMV were separated from the donor by centrifugation in the Beckman airfuge at 115000 g for 2 min at 4° C. The radioactivities in the supernatant containing the donor and in the pellet containing the BBMV (acceptor) were determined in a Beckman LS 7500 scintillation counter.

The test system of data set [1] is brush border membrane vesicles (BBMV). The experiment in a line: IC50 of cholesteryl oleate uptake at the brush border membrane (Example 6). Conditions: donor 0.1 mg total lipid/ml, acceptor 2 mg protein/ml; 20 min at 25° C. Type of data set: biochemical, rabbit. As to the method:
An appropriate amount of inhibitor dissolved in 84.5 μl buffer (0.05 M Tris pH 7.4, 0.15 M NaCl) is mixed in an Eppendorf tube at time zero with 5 μl of a dispersion of donor and 10.5 μl of a dispersion of acceptor (i.e. brush border membrane vesicles (BBMV)) in the same buffer. The final concentration of the donor vesicles was 0.1 mg total lipid/ml, that of the acceptor was 2 mg protein/ml. The resulting mixture was incubated for 20 min at 25° C., and the reaction was stopped by adding 60 μl of the incubation medium to 120 μl ice-cold bufferin an airfuge tube. The diluted dispersion was immediately centrifuiaed in the airfuge at […] for 2 min. at 4° C. to separate donor vesicles from BBMV. Two 60 μl aliquots of the donor (=supernatant) were counted in a Beckman LS-7500 liquid scintillating counter to determine the radioactivity remaining in tbe donor.
Small unilamellar egg phosphatidycholine (PC) vesicles containing 1 mol % of cholesterol oleate and a trace amount of ^3H-cholesterol oleyl ether were made by dissolving the appropriate amounts of the lipids in CHCl3/CH3OH, (2:1, by vol.), taking the solution to dryness on a rotary evaporator and drying the residue in vacuo. The dried lipid film was dispersed in the appropriate volume of buffer by hand-shaking. The lipid dispersion was subjected to tip sonication as described in Brunner et al, J. Biol. Chem. 253 7538-7546 (1978). The resulting donor dispersion in buffer was centrifuged in the airfuge at 100000 g for 2 min at […]. Only the top 80% of the donor dispersion after centrifugation was used in the lipid uptake experiment.
BBMV were prepared from frozen rabbit small intestine according to Hauser et al (Biochim. Biophys. Acta 602 567-577 (1980)). Prior to use in the uptake experiment determining IC50 values the BBMV were washed to remove any free protein liberated from the BBM. To this end the BBMV dispersion was diluted with buffer 1:1 in an airfuge tube, and the diluted dispersion was centrifuged in the airfuga at 100000 g for 2 min at […]. The supernatant was is carefully decanted, the pellet was resuspended in buffer to the original volume of the BBMV dispersion, and the dispersion was homogenized. […]

A further data set deals with rabbit BBMV. The experiment in a line: Dose response of cholesteryl oleate uptake from egg PC SUVs by rabbit BBMV (FIG. 4B). Conditions: donor 0.05 mg/ml total lipid, acceptor 1.7 mg protein/ml, 20 min at 25° C., curve fits of FIG. 4B. The format is biochemical. As to the method:
Small unilamellar vesicles of egg phosphatidylcholine containing 1 mol % cholesteryl oleate and a trace amount of (1,2-^3H2 (N)]-cholesteryl oleyl ether (37 Ci/mmol, from Amersham, UK) as the donor were made as described in Example 1 and BBMVs as the acceptor were prepared from rabbit small intestine (see Example 1). Donor and acceptor both dispersed in Tris/NaCl buffer (0.05 M Tris HCl pH 7.4, 0.15 M NaCl, 0.02% NaN3) and a solution of human apo A-1 or sheep HDL in the same buffer were mixed at time zero (total volume: 0.1 ml) so that the final concentrations of donor and acceptor were 0.05 mg/ml total lipid and 1.7 mg protein/ml, respectively. After incubation of the suspension of donor and acceptor in the presence of inhibitor for 20 min. at 25° C., the reaction was stopped by dilution with 2 vol. of Tris/NaCl buffer. Donor and acceptor were separated by centrifugation in the airfuge at 115,000 g for 2 min. at […]., and the radioactivities in the supernatant containing donor vesicles and in the pellet containing BBMVs were determined in a BECKMAN™ LS 7500 scintillation counter. […]
Experimental conditions were as described for FIG. 4A. The cholesterol absorption activity of BBMVs measured in the absence of inhibition was taken as 100% and the loss in activity observed in the presence of inhibitor is expressed as %. […]

The conditions of data set [2]: taken from Chapman (1986), for comparison; cited from earlier work.

These results are taken from patent US20010005714A1, “AMPHIPATHIC MOLECULES AS CHOLESTEROL AND OTHER LIPID UPTAKE INHIBITORS” (priority 1996, published 2001).

In the case of “Ac-Asp-Trp-Leu-Alα—Lys-Asp-Tyr-Phe-Lys-Lys-Alα —Leu-Val-Glu-Glu-Phe-Alα—Lys-NH2 [scrambled Ac-18A-NH2, reference compound]”, the “inhibition of protein-mediated cholesterol uptake (in words)” value with normal human BBMV is “inactive”.

With “Ac-Lys-Alα-Phe-Tyr-Asp-Lys-Val-Alα-Glu-Lys-Leu-Lys-Glu-Alα α-Phe-NH2 (Ac-KAFYDKVAEKLKEAF-NH2) [Ac-15A-NH2]”, in the data set with BBMVs (120 μg peptide/ml), the “inhibitory effect on cholesteryl oleate uptake (in words, footnote)” value was “Useful inhibitory effect is seen with Peptides Nos. 1 and 2”; the “Inhibition of Cholesteryloleate Uptake In. %” value turned out to be 85%. Besides, in the data set with BBMVs (brush border membrane vesicle model), the “cholesteryl oleate uptake inhibition activity relative to Ac-18A-NH2” value was 85%.

As to “Apo C-1: natural (human) apoprotein C-I (TPDVSSALDKLKEFGNTLEDKARELISRIKQSELSAKMREWFSETFQKVKEKLKIDS; Apolipoprotein C-I; UniProt P02654 27-83, looked up)”, in data set [1], the half-inhibitory concentration (IC50) (in general, the concentration that gives 50% inhibition) amounted to 1.8 ± 0.4 µM and the “IC50 (μg/mL) of cholesteryl oleate uptake at the brush border membrane” value (shortened to “IC50 (μg/mL)”) is 12 ± 2 µg/mL.

With “Apo C-31: natural (human) apoprotein C-III1”, in data set [1], it took 0.6 ± 0.1 µM to reach half-maximal inhibition (IC50) and the “IC50 (μg/mL)” value came out at 4.8 ± 0.8 µg/mL.

As to “Apo C-32: natural (human) apoprotein C-III2”, in data set [1], the 50% inhibitory concentration (IC50) was found to be 0.5 ± 0.2 µM and the “IC50 (μg/mL)” value stood at 4.2 ± 0.2 µg/mL.

For Apo E: natural (human) apoprotein E, in data set [1], the IC50 is 2.9 ± 0.2 µM and the “IC50 (μg/mL)” value came to 95 ± 7 µg/mL.

For “CH3CO—VAEKLKEAF—NH2 (Ac-VAEKLKEAF-NH2) [Ac-9A-NH2]”, in the data set with BBMVs (120 μg peptide/ml), the “Inhibition of Cholesteryloleate Uptake In. %” value was 0%.

On to “CH3CO—YDKVAEKLKEAF—NH2 (Ac-YDKVAEKLKEAF-NH2) [Ac-12A-NH2]”, for which the “Inhibition of Cholesteryloleate Uptake In. %” value in the data set with BBMVs (120 μg peptide/ml) came out at 20%.

apo A-II: human apolipoprotein A-2: the “IC-50” value with rabbit BBMV was 66 µg/mL. Further, in data set [1], half-maximal inhibition (IC50) required 3.8 ± 0.3 µM and the “IC50 (μg/mL)” value came to 66 ± 5 µg/mL.

B1: rabbit apo A-1: rabbit apolipoprotein A-1, literature values for comparison (protein, UniProt P09809 25-266, looked up)
Apolipoprotein A-I: DEPRSSWDKIKDFATVYVDTVKDSGREYVAQFEASAFGKQLNLKLLDNWDSLSSTVSKLQEQLGPVTQEFWDNLEKETEGLREEMNKDLQEVRQKVQPYLDEFQKKWQEEVERYRQKVEPLGAELRESARQKLTELQEKLSPLAEELRDSARTHVDTLRTKLAPYSNELQQRLAARLESIKEGGGASLAEYQAKAREHLSVLSEKARPALEDLRQGLLPVLESFKASVQNVLDEATKKLNTQ
modifications: Apolipoprotein A-I
notes: rabbit apolipoprotein A-1, literature values for comparison
Take B1: the isoelectric point in data set [2] is listed as 5.50.

B2: Apo C-2: natural (human) apoprotein C-II (protein, UniProt P02655 29-101, looked up)
Apolipoprotein C-II: DEMPSPTFLTQVKESLSSYWESAKTAAQNLYEKTYLPAVDEKLRDLYSKSTAAMSTYTGIFTDQVLSVLKGEE
modifications: Apolipoprotein C-II
B2: in data set [1], the IC50 stood at 2.1 ± 0.1 µM and the “IC50 (μg/mL)” value is 19 ± 1 µg/mL.

B3: Apo A-4: natural (human) apoprotein A-IV (protein, UniProt P06727 21-396, looked up)
Apolipoprotein A-IV: EVSADQVATVMWDYFSQLSNNAKEAVEHLQKSELTQQLNALFQDKLGEVNTYAGDLQKKLVPFATELHERLAKDSEKLKEEIGKELEELRARLLPHANEVSQKIGDNLRELQQRLEPYADQLRTQVSTQAEQLRRQLTPYAQRMERVLRENADSLQASLRPHADELKAKIDQNVEELKGRLTPYADEFKVKIDQTVEELRRSLAPYAQDTQEKLNHQLEGLTFQMKKNAEELKARISASAEELRQRLAPLAEDVRGNLRGNTEGLQKSLAELGGHLDQQVEEFRRRVEPYGENFNKALVQQMEQLRQKLGPHAGDVEGHLSFLEKDLRDKVNSFFSTFKEKESQDKTLSLPELEQQQEQQQEQQQEQVQMLAPLES
On to B3, for which, in data set [1], inhibition was half-maximal at 0.7 ± 0.1 µM (IC50) and the “IC50 (μg/mL)” value was 32 ± 4 µg/mL.
